Assays:
Assay type in all cases: biochemical
[1] = biological target: T1, recombinant FAMIN (Homo sapiens, UniProt Q8IV20); test: FAMIN adenosine phosphorylase activity: adenine and R-1-P from adenosine with recombinant FAMIN; conditions: 10 μg recombinant FAMIN, 10 μM adenosine in PBS, 1 h at 37° C., FIG. 11B
T1 sequence (Q8IV20 1-430): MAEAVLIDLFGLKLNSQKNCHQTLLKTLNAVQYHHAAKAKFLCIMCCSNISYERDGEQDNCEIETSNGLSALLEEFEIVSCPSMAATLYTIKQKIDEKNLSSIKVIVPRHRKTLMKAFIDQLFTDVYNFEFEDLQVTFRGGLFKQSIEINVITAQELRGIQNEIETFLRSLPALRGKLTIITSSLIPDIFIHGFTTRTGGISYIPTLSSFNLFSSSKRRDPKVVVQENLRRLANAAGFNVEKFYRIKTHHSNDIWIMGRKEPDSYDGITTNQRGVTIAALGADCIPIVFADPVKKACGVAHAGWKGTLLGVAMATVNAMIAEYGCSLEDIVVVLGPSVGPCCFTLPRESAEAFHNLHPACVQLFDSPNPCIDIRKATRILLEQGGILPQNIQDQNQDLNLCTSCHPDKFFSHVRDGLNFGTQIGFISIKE
Description: (§1) FIGS. 11B and 11C show levels of adenine and ribose-1-phosphate (R-1-P) in the reaction described in FIG. 11A.

[2] = biological target: T1, recombinant FAMIN; test: FAMIN purine nucleoside phosphorylase activity: hypoxanthine and R-1-P from inosine with recombinant FAMIN; conditions: 10 μg recombinant FAMIN, 10 μM inosine in PBS, 1 h at 37° C.; FIG. 11D, E
Description: as §1

[3] = biological target: T1, recombinant FAMIN; test: FAMIN adenosine deaminase activity: inosine generated from adenosine by recombinant FAMIN; conditions: 10 μg recombinant FAMIN, 10 μM adenosine in PBS, 1 h at 37° C.; FIG. 11A
Description: as §1

Compound	effect on FAMIN's adenosine phosphorylase activity (adenine and R-1-P levels) [1]	effect on FAMIN's purine nucleoside phosphorylase activity (hypoxanthine and R-1-P levels) [2]	effect on FAMIN's adenosine deaminase activity (generation of inosine from adenosine) [3]
Nc1nc2c(nc(N)n2[C@@H]2O[C@H](CO)[C@@H](O)[C@H]2O)c(=O)[nH]1 [8-aminoguanosine]	leaving FAMIN's adenosine phosphorylase activity intact	active on FAMIN's purine nucleoside phosphorylase activity	–
CCCCCC[C@@H]([C@@H](C)O)n1cnc2c(N)ncnc21 (racemic) [EHNA, erythro-9-(2-hydroxy-3-nonyl) adenine]	–	–	inhibit FAMIN's adenosine deaminase activity
